From patent US6316033A, “Compositions for treatment of antibiotic-resistant gram-positive bacterial infections and methods for using and preparing the same” (Marco Polo Technologies, priority 1999, dated 2001)
In brackets after ≈: the same amount, converted by molar mass. Read-outs that look alike come from different tables or passages of the source.

How the values were obtained:
[1] = tested on: antibiotic-resistant Staphylococcus aureus clinical isolates; assay: Antibiotic resistance (MIC) of S. aureus clinical isolates; format: cell-based
[2] = literature (Tanaka et al, 1986); cited from earlier work
[3] = tested on: antibiotic-resistant Staphylococcus aureus (ATCC 27695); assay: Disk sensitivity assay, antibiotic-resistant S. aureus; format: cell-based; conditions: for zone of inhibition at 2000 µg/mL: Staphylococcus aureus, ATCC27695, 18 h
Protocol: (§1) More specifically, wild-type Staphylococcus aureus (ATCC 29212) was grown in Luria broth (L-broth) at 37° C. to exponential phase, diluted to 1.0×10^7 bacteria/ml, and mixed with minimal medium (M63, +salt and glucose) with 0.15% (w/v) soft agar. The mixture was poured over a minimal agar plate (minimal medium +0.7% (w/v) agar). Filter paper disks (6.0 mm in diameter) were then impregnated with 20 μl of total organic solvent extract from A. euchroma (containing 10 mg/ml of naphthaquinone compounds in dimethyl formamide (DMF)); 20 μl of total organic solvent extract from L. erythrorhizon (containing 10 mg/ml of naphthaquinone compounds in DMF); 20 μl of the red colored active fraction from A. euchroma isolated using TLC (10 mg/ml in DMF); 20 μl of the red colored active fraction from A. euchroma isolated using the silica gel column (10 mg/ml in DMF); or 20 μl of DMF as control, and placed on the surface of the agar plates. The plates were then incubated at 37° C. for 18 hrs.
The disk assay described above was carried out using antibiotic-resistant Staphylococcus aureus (ATCC 27695), and 20 μl of the total organic solvent extract from A. euchroma (containing 10 mg/ml of naphthaquinone compounds in DMF); 20 μl of the total organic solvent extract from L. erythrorhizon (containing 10 mg/ml of naphthaquinone compounds in DMF); or 20 μl of DMF as a control.
(§2) The disk assay described above was carried out on wild-type S. aureus and antibiotic-resistant S. aureus using 20 μl of the red colored active fraction from A. euchroma isolated using TLC (10 mg/ml in DMF); 20 μl of the red colored active fraction from A. euchroma isolated using the silica gel column (10 mg/ml in DMF); or 20 μl of DMF as a control.
(§3) The anti-microbial activities of the 6 individual components were determined using the disk sensitivity assay described above.
(§4) More specifically, filter paper disks impregnated with 20 μl of each individual component (2.0 mg/ml) were placed on top of the agar plate. The plates were developed as described in Example 4 above.

[4] = tested on: wild-type Staphylococcus aureus; assay: Minimum inhibitory concentration in liquid culture, wild-type strain; format: cell-based
Protocol: (§5) Next, the MIC for the total organic solvent extract from A. euchroma, obtained as described in Example 1 above, against wild-type Staphylococcus aureus and antibiotic-resistant Staphylococcus aureus were determined in liquid culture using L-broth with different amounts of total organic solvent extract, and compared to the MIC for common antibiotics.
(§6) More specifically, different concentrations of total organic solvent extract was added to 1.0 ml of L-broth, and inoculated with 50 μl of an overnight growth of bacteria (about 1.0×10^8 cells). The resulting samples were incubated overnight at 37° C. The MIC was then determined by measuring the minimal concentration of extract needed to inhibit the growth of the bacteria.
The MIC of the six individual components were determined using wild-type S. aureus and the liquid culture method as described above.

[5] = tested on: wild-type Staphylococcus aureus (ATCC 29212); assay: Disk sensitivity assay, wild-type S. aureus; format: cell-based; conditions: for zone of inhibition at 2000 µg/mL: Staphylococcus aureus, ATCC29212, 18 h
Protocol: The antimicrobial activities of the total organic solvent extract from A. euchroma, obtained as described in Example 1 above, and the red colored active fraction from A. euchroma, obtained as described in Example 2 above, were evaluated using a disk sensitivity assay.
as §1, §2, §3, §4

[6] = literature (Tanaka et al; Kyogoku et al; Honda et al); cited from earlier work
[7] = tested on: antibiotic-resistant Staphylococcus aureus; assay: Minimum inhibitory concentration in liquid culture, antibiotic-resistant strain; format: cell-based; conditions: read-out: Minimum Inhibitory Concentration (MIC)
Protocol: as §5, §6

[8] = Staphylococcus aureus, read-out: Minimum Inhibitory Concentration (MIC)
[9] = Strain 3-16, read-out: Antibiotic Resistance (MIC)
[10] = Strain 3-20, read-out: Antibiotic Resistance (MIC)
[11] = Strain 5-37, read-out: Antibiotic Resistance (MIC)
[12] = Strain 5-38, read-out: Antibiotic Resistance (MIC)
[13] = Strain 5-39, read-out: Antibiotic Resistance (MIC)
[14] = Strain 5-47, read-out: Antibiotic Resistance (MIC)
[15] = Antibiotic-resistant Strain, individual components, 20 μl of 2.0 mg/ml, Table 9, read-out: Zone of inhibition
[16] = Staphylococcus aureus, wild-type S. aureus, liquid culture, Table 10, read-out: MIC
[17] = wild-type S. aureus, liquid culture, Table 10
[18] = Wild-Type Strain, individual components, 20 μl of 2.0 mg/ml, Table 9, read-out: Zone of inhibition
[19] = read-out: Antibiotic Resistance (MIC), Strain 3-44
[20] = Antibiotic-resistant Strain, individual components, 20 μl of 2.0 mg/ml, Table 9
[21] = Wild-Type Strain, individual components, 20 μl of 2.0 mg/ml, Table 9

With `CC1(C)S[C@@H]2[C@H](NC(=O)Cc3ccccc3)C(=O)N2[C@H]1C(=O)O` [Penicillin G] the MIC ([1]; read-out: Antibiotic Resistance (MIC), Strain 6515) was over 20 µg/mL.

In the case of `CC(C)=CC[C@@H](O)C1=CC(=O)c2c(O)ccc(O)c2C1=O` (single isomer, unassigned) [Peak I, Shikonin], the anti-inflammatory activity [2] is listed as “anti-inflammatory activity”, the zone of inhibition at 2000 µg/mL [3] is listed as 18 mm and the “appearance of zone of inhibition” value ([3]; antibiotic-resistant S. aureus, individual components, 2.0 mg/ml) is listed as “the inhibition was not complete, as shown by an opaque, rather than a clear zone”. The MIC ([4]; Staphylococcus aureus) was 4 to 5 µg/mL (≈ 13.9 to 17.3 µM), the zone of inhibition at 2000 µg/mL [5] was 18 mm and the “appearance of zone of inhibition” value ([5]; wild-type S. aureus, individual components, 2.0 mg/ml) was “the inhibition was not complete, as shown by an opaque, rather than a clear zone”. The antimicrobial activity [6] was “antimicrobial activity”.

`CO[C@@H]1[C@@H](OC(N)=O)[C@@H](O)[C@H](Oc2ccc3c(O)c(NC(=O)c4ccc(O)c(CC=C(C)C)c4)c(=O)oc3c2C)OC1(C)C` [Novobiocin] gave an MIC [7] of over 20 µg/mL and an MIC [4, 8] of under 2 µg/mL.

In the case of `COc1cccc(OC)c1C(=O)N[C@@H]1C(=O)N2[C@@H]1SC(C)(C)[C@@H]2C(=O)O` [Methicillin], the MIC [1, 9] is reported as 32 µg/mL (≈ 84.1 µM), the MIC [1, 10] is reported as 128 µg/mL (≈ 336 µM) and the MIC [1, 11] is reported as over 128 µg/mL. It also gave an MIC [1, 12] of 32 µg/mL (≈ 84.1 µM), an MIC [1, 13] of 128 µg/mL (≈ 336 µM) and an MIC [1, 14] of over 128 µg/mL.

In the case of `CC(C)=CCC(OC(=O)C=C(C)C)C1=CC(=O)c2c(O)ccc(O)c2C1=O` (stereo not drawn) [Peak VI, β, β-dimethylacryl shikonin], the zone of inhibition at 2000 µg/mL [3, 15] is reported as 7 mm, the MIC [4, 16] is reported as under 2 µg/mL and the “activity ranking among the individual components (MIC)” value [4, 17] is reported as “the most active”. The zone of inhibition at 2000 µg/mL [5, 18] was 7 mm.

With `CCN1CCN(C(=O)N[C@@H](C(=O)N[C@@H]2C(=O)N3[C@@H]2SC(C)(C)[C@@H]3C(=O)O)c2ccccc2)C(=O)C1=O` [Piperacillin] the MIC [1, 9] was 32 µg/mL (≈ 61.8 µM), the MIC [1, 10] was 128 µg/mL (≈ 247 µM) and the MIC ([1]; Strain 4-15, read-out: Antibiotic Resistance (MIC)) was 32 µg/mL (≈ 61.8 µM). It also gave an MIC ([1]; Strain 4-44, read-out: Antibiotic Resistance (MIC)) of over 128 µg/mL, an MIC ([1]; Strain 4-50, read-out: Antibiotic Resistance (MIC)) of 32 µg/mL (≈ 61.8 µM) and an MIC [1, 11] of over 128 µg/mL. The MIC [1, 12] was 32 µg/mL (≈ 61.8 µM), the MIC [1, 13] was 128 µg/mL (≈ 247 µM) and the MIC [1, 14] was over 128 µg/mL.

`CN(C)C1C(=O)C(C(N)=O)=C(O)C2(O)C(=O)C3=C(O)c4c(O)cccc4C(C)(O)C3CC12` (stereo not shown) [Tetracycline] showed an MIC [7] of over 20 µg/mL, an MIC [4, 8] of 1 to 2 µg/mL (≈ 2.25 to 4.5 µM) and an MIC [1, 19] of over 32 µg/mL. The MIC ([1]; read-out: Antibiotic Resistance (MIC), Strain 1206) was over 32 µg/mL.

In the case of `CC(=O)O[C@H](CC=C(C)C)C1=CC(=O)c2c(O)ccc(O)c2C1=O` (single isomer, unassigned) [Peak II, Acetyl shikonin], the zone of inhibition at 2000 µg/mL [3] is reported as 17 mm, the MIC ([4]; Staphylococcus aureus) is reported as 0.5 to 1 µg/mL (≈ 1.51 to 3.03 µM) and the “activity ranking among the individual components (MIC)” value [4, 17] is reported as “the most active”. It also gave a zone of inhibition at 2000 µg/mL [5] of 10 mm.

`CC(C)=CC[C@@H](OC(=O)C(C)C)C1=CC(=O)c2c(O)ccc(O)c2C1=O` [Peak V, Isobutyl shikonin] showed a zone of inhibition at 2000 µg/mL [3, 15] of 7 mm, an MIC [4, 16] of 2 to 4 µg/mL (≈ 5.58 to 11.2 µM) and a zone of inhibition at 2000 µg/mL [5, 18] of 7 mm.

In the case of `CC(C)=CCCC1=CC(=O)c2c(O)ccc(O)c2C1=O` [deoxyshikonin], the anti-inflammatory activity [2] is given as “anti-inflammatory activity” and the antimicrobial activity [6] is given as “antimicrobial activity”.

Compound `CC(C)=CC[C@@H](OC(=O)CC(C)=C(C)C)C1=CC(=O)c2c(O)ccc(O)c2C1=O` (single isomer, unassigned; peak iii) [Peak III, Teracryl shikonin] has a Zone of inhibition [3, 20] of 7.0 mm, an MIC [4, 17] of 4.0 to 6.0 µg/mL and a Zone of inhibition [5, 21] of 7.5 mm.

`CC(C)=CC[C@@H](OC(=O)CC(C)(C)O)C1=CC(=O)c2c(O)ccc(O)c2C1=O` (single isomer, unassigned; peak iv) [Peak IV, Hydroxyisovaleryl shikonin] showed a Zone of inhibition [3, 20] of 7.0 mm, an MIC [4, 17] of 4.0 to 6.0 µg/mL and a Zone of inhibition [5, 21] of 7.0 mm.

Work on `CC[C@H]1OC(=O)[C@H](C)[C@@H](O[C@H]2C[C@@](C)(OC)[C@@H](O)[C@H](C)O2)[C@H](C)[C@@H](O[C@@H]2O[C@H](C)C[C@H](N(C)C)[C@H]2O)[C@](C)(O)C[C@@H](C)C(=O)[C@H](C)[C@@H](O)[C@]1(C)O` [Erythromycin] yielded an MIC [7] of over 20 µg/mL, an MIC [4, 8] of under 1 µg/mL and an MIC [1, 19] of over 32 µg/mL. The MIC ([1]; read-out: Antibiotic Resistance (MIC), Strain 5-75) was over 32 µg/mL, the MIC ([1]; read-out: Antibiotic Resistance (MIC), Strain 5-76) was over 32 µg/mL and the MIC ([1]; read-out: Antibiotic Resistance (MIC), Strain 5-77) was over 32 µg/mL. For the same compound, the MIC ([1]; read-out: Antibiotic Resistance (MIC), Strain 5-78) was 4 µg/mL (≈ 5.45 µM).
